Results as given in article PMC7385556 (ACS chemical biology, 2020).
Marks after values point to notes of the source that are not given here.

System: Mtb K204
Type: cell-based, Mycobacterium tuberculosis
Settings: KAN alone, no inhibitor

## NC[C@H]1O[C@H](O[C@H]2[C@H](O)[C@@H](O[C@H]3O[C@H](CO)[C@@H](O)[C@H](N)[C@H]3O)[C@H](N)C[C@@H]2N)[C@H](O)[C@@H](O)[C@@H]1O [KAN, kanamycin]
  MICKAN in K204: >10, >10^d μg/mL
